The values that follow come from patent US20170119034A1, “COMPOSITIONS AND METHODS FOR MODIFYING PERCEPTION OF SWEET TASTE” (University of Florida Research Foundation, Inc., priority 2012, published 2017).

Holding throughout (assay type): in vivo, human
Test [1] has as its system texture liking of strawberry fruit (consumer panel). Nature of the test: Strawberry consumer panel: bivariate fit to texture liking. Particulars: bivariate linear fit; X = content of the substance in strawberry fruit, Y = Texture liking. As for the experimental part: (§1) All consumer panels were approved by the University of Florida Institutional Review Board. […] Ages of panelist ranged from 18 to 71, with a median age of 24. Panelists self-classified themselves as 98 White or Caucasian, 11 Black or African-American, 1 Native American, Alaska Native or Aleutian, 41 Asian/Pacific Islander, and 15 Other. […] Fresh, fully-ripe strawberry fruit was removed from overnight 4° C. dark storage and allowed to warm to room temperature prior to sensory analysis. Each panelist was given one to two whole strawberries for evaluation, depending on cultivar availability. Panelist took a bite of each sample, chewed, and swallowed it. Ratings for overall liking and liking for texture were scaled on hedonic general labeled magnitude scale (gLMS) in the context of all pleasure/displeasure experiences. […] Scales were employed to mediate valid comparisons across subjects and sessions.
(§2) Bivariate analysis among individual measurements of samples allowed for linear fit, which includes summary of fit, analysis of variance, t-test, and correlation analysis for density ellipse. Two-way Ward hierarchical cluster analysis of all metabolite concentrations and strawberry samples accomplished in JMP.

For test [2], the system named is strawberry flavor intensity (consumer panel). The experiment in a line: Strawberry consumer panel: bivariate fit to strawberry flavor intensity. The settings on record: for Parameter Estimates: Estimate: bivariate linear fit, X = content of the substance in strawberry fruit, Y = Flavor Intensity (FI); for relationship to strawberry flavor intensity / sensory perception: in words. As for the experimental part:
as §1, §2

Test [3] concerns perceived sweetness intensity of strawberry fruit (consumer panel). The experiment in a line: Strawberry consumer panel: multiple regression of volatile concentration against perceived sweetness intensity independent of glucose, fructose or sucrose. Particulars: for negatively related to sweetness: sugar(s) of which the effect is independent: compounds negatively related to sweetness independent of at least one of the sugars; for enhancement of perceived intensity of sweetness independent of sugars: in words. As for the experimental part: Step-wise multiple regressions of all volatile compounds against perceived intensity of sweetness is performed independent of either glucose, fructose, or sucrose concentration, separately (Table 6).
as §1
Multiple regressions were performed with the “enter” method in SPSS for identification of sweetness enhancing volatiles. Individual volatile compound concentrations were regressed using the “enter” method in SPSS Statistics (IBM Corp, Armonk, N.Y., USA).

`CCCCCC=O` [66-25-1]: in test [1], the “Parameter Estimates-fit to Texture Liking: Estimate” value (shortened to “Parameter Estimates-fit”) is given as 0.0005099. In addition, in test [2], the “Parameter Estimates: Estimate” value is reported as 0.0002842 and the “relationship to strawberry flavor intensity / sensory perception” value is listed as “does not have a significant correlation to flavor intensity”. For `CCCCCO` [71-41-0], the “Parameter Estimates-fit” value in test [1] is 0.3727. In test [2], the “Parameter Estimates: Estimate” value is recorded as 0.2445. The like results for `CCC(C)(C)O` [75-85-4] were, in that order, 0.3219 and 0.1051. As for `CCCCC(=O)C(C)=O` [96-04-8], the “Parameter Estimates-fit” value in test [1] was −0.09953. In addition, in test [2], the “Parameter Estimates: Estimate” value is reported as 0.01959.

For the compound `CCC(=O)CC` [96-22-0], the “Parameter Estimates-fit” value in test [1] is 0.004596. The “Parameter Estimates: Estimate” value in test [2] is 0.05443. Consider `CCCCC(CC)COC(C)=O` (centres unmarked) [103-09-3], for which the “Parameter Estimates-fit” value in test [1] was −1.955. Also, in test [2], the “Parameter Estimates: Estimate” value is recorded as 0.01965.

With `CCOC(=O)CC` [105-37-3], the “Parameter Estimates-fit” value in test [1] is on record as −0.01062. In addition, in test [2], the “Parameter Estimates: Estimate” value was −0.01371. For `CCCC(=O)OCC` [105-54-4, ethyl butyrate], in test [2], the “relationship to strawberry flavor intensity / sensory perception” value was “significant positive correlation with flavor intensity”. Take `CCCCCCCC(=O)OCC` [106-32-1, ethyl octanoate]: in test [3], the “negatively related to sweetness: sugar(s) of which the effect is independent” value was “exclusively independent of glucose”. Still for that read-out and setting: then `CC(=O)CC(C)C` [108-10-1, 4-Methyl-2-pentanone], with “mutually independent of glucose and fructose”.

In the case of `CCCCOC(=O)CC(C)C` [109-19-3, butyl 3-methylbutanoate], the “enhancement of perceived intensity of sweetness independent of sugars” value (“enhancement” below) in test [3] is “show evidence of enhancing perceived sweetness intensity independent of individual sugars”. Turning to `CCCOC(C)=O` [109-60-4], the “Parameter Estimates-fit” value in test [1] is on record as −0.5137. The “Parameter Estimates: Estimate” value in test [2] is recorded as −0.05307. For `CCCCC=O` [110-62-3], the “Parameter Estimates-fit” value in test [1] is listed as 0.1789. Further, in test [2], the “Parameter Estimates: Estimate” value was −0.1249 and the “relationship to strawberry flavor intensity / sensory perception” value was “negatively correlated to flavor”. Take `CCCCCCC=O` [111-71-7, heptanal]: the “enhancement” value in test [3] is given as “show evidence of enhancing perceived sweetness intensity independent of individual sugars”. Consider `CCCCCC(=O)OCC` [123-66-0], for which the “Parameter Estimates-fit” value in test [1] was −0.0003354. For the same compound, in test [2], the “Parameter Estimates: Estimate” value is listed as 0.002386 and the “relationship to strawberry flavor intensity / sensory perception” value is on record as “no bearing on sensory perception”. For the compound `CC(=O)OCCC(C)C` [123-92-2], the “Parameter Estimates-fit” value in test [1] was −0.07997. In addition, the “Parameter Estimates: Estimate” value in test [2] is 0.005816.

For the compound `CCCCCCCC=O` [124-13-0], in test [1], the “Parameter Estimates-fit” value is on record as −0.2865. In addition, in test [2], the “Parameter Estimates: Estimate” value is on record as 0.3091. Taken in the same sequence, the figures for `Cc1cc(C(C)(C)C)c(O)c(C(C)(C)C)c1` [128-37-0] were 0.2009 and 0.1227. Taken in the same sequence, the figures for `COC(=O)c1ccccc1N` [134-20-3] were −4.493 and −0.8484. As to `CC(=O)OCc1ccccc1` [140-11-4], the “Parameter Estimates-fit” value in test [1] is reported as −0.0849. Further, the “Parameter Estimates: Estimate” value in test [2] is given as 0.02204.

`CCCCCCOC(C)=O` [142-92-7, hexyl acetate]: the “enhancement” value in test [3] was “mutually independent of all three sugar”. The same measure, in the same setting: in the case of `CCCCC(=O)OCC` [539-82-2, ethyl valerate] it was “show evidence of enhancing perceived sweetness intensity independent of individual sugars”; in that of `CCCCCOC(=O)CCC` [540-18-1, pentyl butyrate], “mutually independent of all three sugar”. `CCCC(=O)CC` [589-38-8]: the “Parameter Estimates-fit” value in test [1] is on record as 0.4306. Moreover, the “Parameter Estimates: Estimate” value in test [2] is on record as 0.4621. Taken in the same sequence, the figures for `C=CC(O)CC` (centres unmarked) [616-25-1] were 0.06401 and 0.2097. As for `CCCC(=O)OC` [623-42-7], the “Parameter Estimates-fit” value in test [1] is listed as 6.892e−05. Moreover, in test [2], the “Parameter Estimates: Estimate” value is given as 0.0008905 and the “relationship to strawberry flavor intensity / sensory perception” value was “significant positive correlation with flavor intensity”. Regarding `C/C=C/C(=O)OC` [623-43-8], the “Parameter Estimates-fit” value in test [1] was −0.7133. Also, in test [2], the “Parameter Estimates: Estimate” value is given as −0.101. The like results for `CCCCC(=O)OC` [624-24-8] were, in that order, 0.2596 and −0.1. The like results for `CCC(C)COC(C)=O` (centres unmarked) [624-41-9] were, in that order, −0.03512 and 0.009696.

Consider `CCCCCOC(C)=O` [628-63-7], for which, in test [1], the “Parameter Estimates-fit” value is reported as −0.1907. In test [2], the “Parameter Estimates: Estimate” value is given as 0.4892. The like results for `CCCCCCC1CCC(=O)O1` (centres unmarked) [706-14-9] were, in that order, 0.01485 and 0.02049. The like results for `CCC/C=C/CO` [928-95-0] were, in that order, −0.0133 and −0.0006379. For `CC(=O)OCC=C(C)C` [1191-16-8, 3-methyl-2-buten-1-yl acetate], in test [3], the “negatively related to sweetness: sugar(s) of which the effect is independent” value is listed as “exclusively independent of sucrose”.

On to `CSC(C)=O` [1534-08-3], for which the “Parameter Estimates-fit” value in test [1] is listed as 0.06449. The “Parameter Estimates: Estimate” value in test [2] is listed as 1.808. `CC/C=C/C=O` [1576-87-0, (E)-pent-2-en-1-al]: the “relationship to strawberry flavor intensity / sensory perception” value in test [2] is recorded as “enhancing toward flavor intensity”. In the case of `C=CC(=O)CC` [1629-58-9, 1-penten-3-one], the “enhancement” value in test [3] was “mutually independent of all three sugar”. Same read-out and setting: then `CCCCCCCCC1CCC(=O)O1` (centres unmarked) [2305-05-7, 5-octyldihydro-2(3H)-furanone], with “mutually independent of all three sugar”. With `CCC/C=C/COC(C)=O` [2497-18-9], the “Parameter Estimates-fit” value in test [1] is on record as −0.02456. Further, the “Parameter Estimates: Estimate” value in test [2] is 0.008248. The like results for `CCCCC/C=C/C=O` [2548-87-0] were, in that order, 1.345 and 0.6039. As to `CCCCCCOC(=O)CCC` [2639-63-6, hexyl butyrate], the “enhancement” value in test [3] is listed as “mutually independent of all three sugar”. With `COC1=C(C)OC(C)C1=O` (centres unmarked) [4077-47-8, 4-methoxy-2,5-dimethyl-3(2H)-furanone], in test [2], the “relationship to strawberry flavor intensity / sensory perception” value is listed as “significant positive correlation with flavor intensity”. `C=C[C@]1(C)CC[C@H](C(C)(C)O)O1` [5989-33-3]: the “Parameter Estimates-fit” value in test [1] is 0.6605. In test [2], the “Parameter Estimates: Estimate” value is 0.7378. Take `CCCCCCCCOC(=O)CC(C)C` [7786-58-5, octyl 3-methylbutanoate]: in test [3], the “enhancement” value was “show evidence of enhancing perceived sweetness intensity independent of individual sugars”. As for `C=C(C)C1CC=C(COC(C)=O)CC1` (centres unmarked) [15111-96-3], the “Parameter Estimates-fit” value in test [1] is on record as −0.1056. Also, the “Parameter Estimates: Estimate” value in test [2] is on record as −0.2365. As to `CCCCC/C=C\C=O` [20664-46-4], the “Parameter Estimates-fit” value in test [1] is −0.04121. The “Parameter Estimates: Estimate” value in test [2] is listed as 0.03985. The like results for `CCC(O)C(=O)OC` (centres unmarked) [29674-47-3] were, in that order, 0.02693 and 0.207.

As to `CCCCCCCCOC(=O)C(C)CC` (centres unmarked) [29811-50-5], the “Parameter Estimates-fit” value in test [1] was −0.1411. The “Parameter Estimates: Estimate” value in test [2] is 0.1055. Taken in the same sequence, the figures for `C=CC(C)(O)CC/C=C(\C)CCC=C(C)C` (centres unmarked) [40716-66-3] were 0.01941 and 0.01223. The like results for `CC=C(C)C(=O)OCC` [55514-48-2] were, in that order, −2.984 and −0.1506.

In the case of `CCCC(=O)OC(C)CCC` (centres unmarked) [60415-61-4, 2-pentanyl butyrate], the “enhancement” value in test [3] is reported as “mutually independent of all three sugar”. For the compound `O=C(O)CC(O)(CC(=O)O)C(=O)O` [Citric], the “Parameter Estimates-fit” value in test [1] is −0.001831. Also, the “Parameter Estimates: Estimate” value in test [2] is listed as 0.01293. With `O=C(O)CC(O)C(=O)O` (centres unmarked) [Malic], the “Parameter Estimates-fit” value in test [1] is listed as 0.05905. Moreover, the “Parameter Estimates: Estimate” value in test [2] is 0.001142.
